From article PMC10893060, “Synthesis and Study of the Structure–Activity Relationship of Antiproliferative N-Substituted Isosteviol-Based 1,3-Aminoalcohols” (Pharmaceuticals, 2024)

Key:
Type in all cases: cell-based
HeLa = assay: MTT antiproliferative assay, HeLa; conditions: Homo sapiens, 72 h, no IC50 calculated when less than 50% inhibition at 10 μM
Source text: (§1) The antiproliferative activities of the prepared diterpene analogues were studied using an MTT assay on a panel of human adherent cancer lines, including cells from cervical (HeLa), breast (MDA-MB-231, MCF-7), and ovary cancers (A2780), as given in Figure 1 and Table S1 in the Supplementary Materials. A non-malignant fibroblast cell line (NIH/3T3) was also utilised to obtain preliminary information on the cancer selectivity of the tested compounds. Based on the obtained activities, some conclusions could be drawn regarding the structure–activity relationships (SARs). Since neither the key intermediate benzyl ester of hydroxylaldehyde 4 nor the N-Boc protected aminoalcohols (6, 7, 11, 12) or even compound 8 with a free carboxylic function exerted remarkable antiproliferative effects (except for 12 against A2780 ovarian cancer cells), we could conclude that the simultaneous presence of the ester function and the basic secondary amino function were essential for the inhibition of cell growth. […] All active molecules inhibited considerably the proliferation of non-malignant cells, which meant that most currently presented agents were not optimal for further investigations of their anticancer properties.
(§2) The growth-inhibitory effects of the isosteviol-based 1,3-aminoalcohols were determined by a standard MTT (3-(4,5-dimethylthiazol-2-yl)-2,5-diphenyltetrazolium bromide) assay on a panel containing five cell lines, including Hela (cervical cancer), MDA-MB-231 and MCF-7 (breast cancers), and A2780 ovarian cancer cells. All cell lines were purchased from the European Collection of Cell Cultures (Salisbury, UK). The cells were maintained in a minimal essential medium supplemented with 10% foetal bovine serum, 1% non-essential amino acids, and 1% penicillin–streptomycin at 37 °C in a humidified atmosphere containing 5% CO2. All media and supplements were obtained from Lonza Group Ltd. (Basel, Switzerland). Cancer cells were seeded into 96-well plates (5000 cells/well); after overnight incubation, the test compound was added in two different concentrations (10 µM and 30 µM) and incubated for another 72 h under cell-culturing conditions. In the next step, 20 μL of 5 mg/mL of an MTT solution was added to each well and incubated for a further 4 h. The medium was removed and the precipitated formazan crystals were dissolved in DMSO after 60 min of shaking at 37 °C. As a final step, the absorbance was measured at 545 nm by using a microplate reader. Untreated cells were included as controls. […] Two independent experiments were performed with five wells for each condition. Calculations were performed using the GraphPad Prism 10.0 software (GraphPad Software Inc., San Diego, CA, USA).

MDA-MB-231 = assay: MTT antiproliferative assay, MDA-MB-231; conditions: Homo sapiens, 72 h, no IC50 calculated when less than 50% inhibition at 10 μM
Source text: as §1, §2

A2780 = assay: MTT antiproliferative assay, A2780; conditions: Homo sapiens, 72 h, no IC50 calculated when less than 50% inhibition at 10 μM
Source text: as §1, §2

MCF-7 = assay: MTT antiproliferative assay, MCF-7; conditions: Homo sapiens, MCF7, 72 h, no IC50 calculated when less than 50% inhibition at 10 μM
Source text: as §1, §2

NIH/3T3 = assay: MTT assay on non-malignant fibroblasts; conditions: Mus musculus, NIH3T3, 72 h, no IC50 calculated when less than 50% inhibition at 10 μM
Source text: as §1, §2

SMILES | IC50 (HeLa) | IC50 (MDA-MB-231) | IC50 (A2780) | IC50 (MCF-7) | IC50 (NIH/3T3)
C[C@]12CCC3[C@](CC[C@@H]4[C@](C)(C(=O)OCc5ccccc5)CCC[C@@]34C)(C1)[C@H](C=O)[C@H]2O (stereo partly drawn) [Compound 4, (4R,4aS,6aS,7S,8R,9S,11bS)-Benzyl 7-formyl-8-hydroxy-4,9,11b-trimethyltetradecahydro-6a,9-methanocyclohepta[a]naphthalene-4-carboxylate] | > 10 µM | > 10 µM | > 10 µM | > 10 µM | > 10 µM
C[C@]12CCC3[C@](CC[C@@H]4[C@](C)(C(=O)OCc5ccccc5)CCC[C@@]34C)(C1)[C@H](CNCc1ccc(F)cc1)[C@H]2O (stereo partly drawn) [Compound 5, (4R,4aS,6aS,7R,8R,9S,11bS)-Benzyl 7-(((4-fluorobenzyl)amino)methyl)-8-hydroxy-4,9,11b-trimethyltetradecahydro-6a,9-methanocyclohepta[a]naphthalene-4-carboxylate] | 4.17 µM | 5.98 µM | 4.57 µM | 4.29 µM | 4.27 µM
CC(C)(C)OC(=O)N(Cc1ccc(F)cc1)C[C@@H]1[C@@H](O)[C@@]2(C)CCC3[C@]1(CC[C@@H]1[C@](C)(C(=O)OCc4ccccc4)CCC[C@@]31C)C2 (stereo partly drawn) [Compound 6, (4R,4aS,6aS,7R,8R,9S,11bS)-Benzyl 7-(((tert-butoxycarbonyl)(4-fluorobenzyl)amino)methyl)-8-hydroxy-4,9,11b-trimethyltetradecahydro-6a,9-methanocyclohepta[a]naphthalene-4-carboxylate] | > 10 µM | > 10 µM | > 10 µM | > 10 µM | > 10 µM
CC(C)(C)OC(=O)N(Cc1ccc(F)cc1)C[C@@H]1[C@@H](O)[C@@]2(C)CCC3[C@]1(CC[C@@H]1[C@](C)(C(=O)O)CCC[C@@]31C)C2 (stereo partly drawn) [Compound 7, (4R,4aS,6aS,7R,8R,9S,11bS)-7-(((tert-butoxycarbonyl)(4-fluorobenzyl)amino)methyl)-8-hydroxy-4,9,11b-trimethyltetradecahydro-6a,9-methanocyclohepta[a]naphthalene-4-carboxylic Acid] | > 10 µM | > 10 µM | > 10 µM | > 10 µM | > 10 µM
C=CC(=O)OCCCCOC(=O)[C@]1(C)CCC[C@@]2(C)C3CC[C@@]4(C)C[C@]3(CC[C@H]12)[C@H](CN(Cc1ccc(F)cc1)C(=O)OC(C)(C)C)[C@H]4O (stereo partly drawn) [Compound 11, (4R,4aS,6aS,7R,8R,9S,11bS)-4-(Acryloyloxy)butyl 7-(((tert-butoxycarbonyl)(4-fluorobenzyl)amino)methyl)-8-hydroxy-4,9,11b-trimethyltetradecahydro-6a,9-methanocyclohepta[a]naphthalene-4-carboxylate] | > 10 µM | > 10 µM | > 10 µM | > 10 µM | > 10 µM
C=CC(=O)OCCC(=O)OCCCCOC(=O)[C@]1(C)CCC[C@@]2(C)C3CC[C@@]4(C)C[C@]3(CC[C@H]12)[C@H](CN(Cc1ccc(F)cc1)C(=O)OC(C)(C)C)[C@H]4O (stereo partly drawn) [Compound 12, (4R,4aS,6aS,7R,8R,9S,11bS)-4-((3-(Acryloyloxy)propanoyl)oxy)butyl 7-(((tert-butoxycarbonyl)(4-fluorobenzyl)amino)methyl)-8-hydroxy-4,9,11b-trimethyltetradecahydro-6a,9-methanocyclohepta[a]naphthalene-4-carboxylate] | > 10 µM | > 10 µM | 4.78 µM | > 10 µM | > 10 µM
C[C@@H](NC[C@@H]1[C@@H](O)[C@@]2(C)CCC3[C@]1(CC[C@@H]1[C@](C)(C(=O)OCc4ccccc4)CCC[C@@]31C)C2)c1ccc(F)cc1 (stereo partly drawn) [Compound 15, (4R,4aS,6aS,7R,8R,9S,11bS)-Benzyl 7-((((R)-1-(4-fluorophenyl)ethyl)amino)methyl)-8-hydroxy-4,9,11b-trimethyltetradecahydro-6a,9-methanocyclohepta[a]naphthalene-4-carboxylate] | 4.18 µM | 4.28 µM | 3.91 µM | 4.2 µM | 4.8 µM
CC[C@@H](NC[C@@H]1[C@@H](O)[C@@]2(C)CCC3[C@]1(CC[C@@H]1[C@](C)(C(=O)OCc4ccccc4)CCC[C@@]31C)C2)c1ccccc1 (stereo partly drawn) [Compound 16, (4R,4aS,6aS,7R,8R,9S,11bS)-Benzyl 8-hydroxy-4,9,11b-trimethyl-7-((((R)-1-phenylpropyl)amino)methyl)tetradecahydro-6a,9-methanocyclohepta[a]naphthalene-4-carboxylate] | 3.86 µM | 4.79 µM | 4 µM | 3.48 µM | 1.37 µM
CC[C@H](NC[C@@H]1[C@@H](O)[C@@]2(C)CCC3[C@]1(CC[C@@H]1[C@](C)(C(=O)OCc4ccccc4)CCC[C@@]31C)C2)c1ccccc1 (stereo partly drawn) [Compound 17, (4R,4aS,6aS,7R,8R,9S,11bS)-Benzyl 8-hydroxy-4,9,11b-trimethyl-7-((((S)-1-phenylpropyl)amino)methyl)tetradecahydro-6a,9-methanocyclohepta[a]naphthalene-4-carboxylate] | 4.45 µM | 4.04 µM | 3.78 µM | 4.74 µM | 1.95 µM
C[C@@H](NC[C@@H]1[C@@H](O)[C@@]2(C)CCC3[C@]1(CC[C@@H]1[C@](C)(C(=O)OCc4ccccc4)CCC[C@@]31C)C2)c1cccc2ccccc12 (stereo partly drawn) [Compound 18, (4R,4aS,6aS,7R,8R,9S,11bS)-Benzyl 8-hydroxy-4,9,11b-trimethyl-7-((((R)-1-(naphthalen-1-yl)ethyl)amino)methyl)tetradecahydro-6a,9-methanocyclohepta[a]naphthalene-4-carboxylate] | 3.05 µM | 4.63 µM | 2.89 µM | 4.85 µM | 4.61 µM
C[C@H](NC[C@@H]1[C@@H](O)[C@@]2(C)CCC3[C@]1(CC[C@@H]1[C@](C)(C(=O)OCc4ccccc4)CCC[C@@]31C)C2)c1cccc2ccccc12 (stereo partly drawn) [Compound 19, (4R,4aS,6aS,7R,8R,9S,11bS)-Benzyl 8-hydroxy-4,9,11b-trimethyl-7-((((S)-1-(naphthalen-1-yl)ethyl)amino)methyl)tetradecahydro-6a,9-methanocyclohepta[a]naphthalene-4-carboxylate] | 6.08 µM | 7.29 µM | 4.41 µM | 5.59 µM | 5.44 µM
CC12CCC3C(CC[C@@H]4[C@](C)(C(=O)OCc5ccccc5)CCC[C@@]34C)(C1)[C@H](CNCCCn1ccnc1)[C@H]2O (stereo partly drawn) [Compound 20, (4R,4aS,7R,8R,11bS)-Benzyl 7-(((3-(1H-imidazol-1-yl)propyl)amino)methyl)-8-hydroxy-4,9,11b-trimethyltetradecahydro-6a,9-methanocyclohepta[a]naphthalene-4-carboxylate] | 1.99 µM | 1.78 µM | 3.74 µM | 1.37 µM | 4.78 µM
COC(=O)[C@]1(C)CCC[C@@]2(C)C3CC[C@@]4(C)C[C@]3(CC[C@H]12)[C@H](CN[C@H](C)c1ccc(F)cc1)[C@H]4O (stereo partly drawn) [Compound 23, (4R,4aS,6aS,7R,8R,9S,11bS)-Methyl 7-((((R)-1-(4-fluorophenyl)ethyl)amino)methyl)-8-hydroxy-4,9,11b-trimethyltetradecahydro-6a,9-methanocyclohepta[a]naphthalene-4-carboxylate] | 4.16 µM | 5.08 µM | 4.24 µM | 3.16 µM | 1.79 µM
